# Source: US20210308089A1, “METHODS OF TREATING AND/OR PREVENTING VIRAL INFECTIONS AND/OR DISEASES CAUSED BY VIRUSES IN A SUBJECT IN NEED THEREOF” (priority 2020, published 2021)
# Test system: patients of the REDUCE-IT and earlier EPA placebo-controlled trials
# Assay: Example 3: adverse events by risk ratio, icosapent ethyl vs placebo (candidate categories; infectious disease terms of interest)
# Conditions: R-I
# [1] = Age-Related Macular Degeneration
structure (smiles),measurement,setting,value
"CC/C=C\C/C=C\C/C=C\C/C=C\C/C=C\CCCC(=O)OCC [icosapent ethyl, eicosapentaenoic acid ethyl ester]",Risk Ratio (95% CI): Cognitive Decline: Cognitive and attention disorders and disturbances (AE table),,1.000 (0.141 to 7.097) −1
same,Risk Ratio (95% CI): Cognitive Decline: Cognitive disturbances (AE table),,[No cases in study]
same,Risk Ratio (95% CI): Cough (AE table),,1.000 (0.841 to 1.189) −1
same,Risk Ratio (95% CI): Cystic Fibrosis (AE table),,[No cases in study]
same,Risk Ratio (95% CI): Decreased Appetite (AE table),,2.584 (1.329 to 5.024) −4
same,Risk Ratio (95% CI): Deep Venous Thromboembolism (AE table),,0.625 (0.205 to 1.909) 2
same,Risk Ratio (95% CI): Depression: Depressed mood disorders and disturbances (AE table),,1.106 (0.861 to 1.422) −1
same,Risk Ratio (95% CI): Depression: Depressive disorders (AE table),,1.123 (0.867 to 1.454) −1
same,Risk Ratio (95% CI): Depression: Depressive disorders - Agitated depression (AE table),,[2 drugs vs 0 PBO]
same,Risk Ratio (95% CI): Depression: Depressive disorders - Depression (AE table),,1.097 (0.843 to 1.428) −1
same,Risk Ratio (95% CI): Depression: Depressive disorders - Major depression (AE table),,3.001 (0.312 to 28.836) −4
same,Risk Ratio (95% CI): Depression: Depressive disorders - Persistent depressive disorder (AE table),,2.000 (0.181 to 22.053) −3
same,Risk Ratio (95% CI): Depression: Mood alterations - Depressed mood (AE table),,1.000 (0.290 to 3.452) −1
same,Risk Ratio (95% CI): Depression: Mood alterations - Depressive symptom (AE table),,0.500 (0.045 to 5.513) 3
same,Risk Ratio (95% CI): Depression: Mood alterations with depressive symptoms (AE table),,0.857 (0.288 to 2.549) 1
same,Risk Ratio (95% CI): Dermatitis psoriasiform (AE table),,[1 drug vs 0 PBO]
same,"Risk Ratio (95% CI): Dermatitis, allergic (AE table)",,0.250 (0.071 to 0.885) 4
same,Risk Ratio (95% CI): Diabetic Nephropathy (AE table),,0.909 (0.387 to 2.139) 1
same,Risk Ratio (95% CI): ESRD (AE table),,0.667 (0.111 to 3.989) 2
same,Risk Ratio (95% CI): Ear infection (AE table),,0.821 (0.515 to 1.307) 1
same,Risk Ratio (95% CI): Embolism and Thrombosis (AE table),,1.064 (0.716 to 1.581) −1
same,Risk Ratio (95% CI): Emphysema (AE table),,0.600 (0.294 to 1.266) 2
same,Risk Ratio (95% CI): Epilepsy (AE table),,1.000 (0.063 to 15.986) −1
same,Risk Ratio (95% CI): Erectile dysfunction (AE table),,0.784 (0.535 to 1.151) 2
same,Risk Ratio (95% CI): Furuncle (AE table),,0.500 (0.171 to 1.462) 3
same,"Risk Ratio (95% CI): Gastroenteritis, viral (AE table)",,0.789 (0.525 to 1.185) 2
same,Risk Ratio (95% CI): Gastroesophageal reflux (AE table),,0.333 (0.090 to 1.231) 4
same,Risk Ratio (95% CI): Gingivitis (AE table),,0.500 (0.171 to 1.462) 3
same,Risk Ratio (95% CI): Glomerulonephritis and Nephrotic Syndrome (AE table),,[0 drug vs 4 PBO]
same,Risk Ratio (95% CI): Guttate psoriasis (AE table),,[1 drug vs 0 PBO)
same,Risk Ratio (95% CI): Helicobacter infection (AE table),,0.556 (0.186 to 1.657) 3
same,Risk Ratio (95% CI): Hepatitis C (AE table),,[1 drug vs 0 PBO]
same,Risk Ratio (95% CI): Herpes Zoster (AE table),,0.960 (0.695 to 1.325) 1
same,Risk Ratio (95% CI): Herpes simplex (AE table),,0.625 (0.205 to 1.909) 2
same,Risk Ratio (95% CI): Hyperglycemia (AE table),,0.764 (0.562 to 1.037) 2
same,Risk Ratio (95% CI): Hyperkalemia (AE table),,0.582 (0.377 to 0.898) 3
same,Risk Ratio (95% CI): Hypertension (AE table),,0.930 (0.804 to 1.077) 1
same,Risk Ratio (95% CI): Hypertensive Crisis (AE Table),,0.698 (0.439 to 1.110) 2
same,Risk Ratio (95% CI): Hypokalemia (AE table),,1.064 (0.784 to 1.445) −1
same,Risk Ratio (95% CI): Hypomagnesemia (AE table),,0.675 (0.422 to 1.078) 2
same,Risk Ratio (95% CI): IgA Nephropathy (AE table),,[No cases in study]
same,Risk Ratio (95% CI): Infected bite (AE table),,0.714 (0.227 to 2.249) 2
same,Risk Ratio (95% CI): Influenza (AE table),,0.971 (0.824 to 1.144) 1
same,Risk Ratio (95% CI): Influenza like illness (AE table),,0.852 (0.489 to 1.483) 1
same,Risk Ratio (95% CI): Jaundice cholestatic (AE table),,[4 drug vs 0 PBO]
same,Risk Ratio (95% CI): Large intestine polyps (AE table),,0.385 (0.137 to 1.078) 4
same,Risk Ratio (95% CI): Limb Fractures and Dislocations (AE table),,0.883 (0.541 to 1.439) 1
same,Risk Ratio (95% CI): Lupus (AE table),,[0 drugs vs 1 PBO]
same,Risk Ratio (95% CI): Male Infertility (AE table),,[No cases in study]
same,Risk Ratio (95% CI): Microalbuminuria (AE table),,0.214 (0.062 to 0.745) 4
same,Risk Ratio (95% CI): Migraine (AE table),,2.751 (0.877 to 8.631) −4
same,Risk Ratio (95% CI): Mucosal inflammation (AE table),,0.600 (0.144 to 2.510) 2
same,Risk Ratio (95% CI): Multiple Sclerosis (AE table),,[0 drugs vs 1 PBO]
same,Risk Ratio (95% CI): Muscle spasms (AE table),,0.579 (0.421 to 0.795) 3
same,Risk Ratio (95% CI): NASH (AE table),,0.167 (0.020 to 1.384) 5
same,Risk Ratio (95% CI): NASH for b/l NFS >0.675 (AE table),,0.252 (0.028 to 2.251) 4
same,Risk Ratio (95% CI): NASH+Hepatic Steatosis for NFS >0.675 (AE table),,0.740 (0.342 to 1.601) 2
same,"Risk Ratio (95% CI): Nasopharyngitis, Mild Severity (AE table)",,0.975 (0.840 to 1.133) 1
same,Risk Ratio (95% CI): Nephrolithiasis (AE table),,1.050 (0.777 to 1.419) −1
same,Risk Ratio (95% CI): Nephropathies (AE table),,0.679 (0.380 to 1.213) 2
same,Risk Ratio (95% CI): Nephrotic Syndrome (AE table),,[0 drug vs 1 PBO]
same,Risk Ratio (95% CI): Orthopnea (AE table),,0.500 (0.151 to 1.660) 3
same,Risk Ratio (95% CI): PMS/Dysmenorrhea (AE table),,[No cases in study]
same,Risk Ratio (95% CI): PTSD (AE table),,0.667 (0.111 to 3.989) 2
same,Risk Ratio (95% CI): Pancytopenia (AE table),,0.556 (0.186 to 1.657) 3
same,Risk Ratio (95% CI): Pneumonia (AE table),,0.950 (0.807 to 1.118) 1
same,Risk Ratio (95% CI): Polycystic Ovarian Syndrome (AE table),,[No cases in study]
same,Risk Ratio (95% CI): Proteinuria (AE table),,0.609 (0.314 to 1.181) 2
same,Risk Ratio (95% CI): Psoriasis (AE table),,1.750 (0.949 to 3.230) −3
same,Risk Ratio (95% CI): Psoriatic Conditions (AE table),,1.875 (1.024 to 3.435) −3
same,Risk Ratio (95% CI): Psychosis: Psychotic disorder NEC (AE table),,0.500 (0.045 to 5.513) 3
same,Risk Ratio (95% CI): Pulmonary Edema (AE table),,0.556 (0.257 to 1.202) 3
same,Risk Ratio (95% CI): Rental Transplant (AE table),,[No cases in study]
same,Risk Ratio (95% CI): Respiratory Failure (AE table),,0.909 (0.497 to 1.664) 1
same,Risk Ratio (95% CI): Respiratory tract infection (AE table),,0.939 (0.629 to 1.401) 1
same,Risk Ratio (95% CI): Rheumatoid Arthritis (AE table),,[0 drug vs 3 PBO]
same,Risk Ratio (95% CI): Rhinitis (AE table),,0.727 (0.383 to 1.383) 2
same,Risk Ratio (95% CI): Schizophrenia NEC (AE table),,0.500 (0.045 to 5.513) 3
same,Risk Ratio (95% CI): Sepsis (AE table),,0.786 (0.499 to 1.237) 2
same,Risk Ratio (95% CI): Severe chronic obstructive pulmonary disease (AE table),,0.857 (0.458 to 1.607) 1
same,"Risk Ratio (95% CI): Severe dermatitis, allergic (AE table)",,0.250 (0.028 to 2.236) 4
same,Risk Ratio (95% CI): Severe gastroenteritis (AE table),,0.667 (0.273 to 1.630) 2
same,Risk Ratio (95% CI): Severe sepsis (AE table),,0.759 (0.437 to 1.318) 2
same,Risk Ratio (95% CI): Severe systemic inflammatory response syndrome (AE table),,0.167 (0.020 to 1.384) 5
same,Risk Ratio (95% CI): Severe urinary tract infection (AE table),,0.650 (0.324 to 1.305) 2
same,Risk Ratio (95% CI): Sickle Cell Disease (AE table),,[No cases in study]
same,Risk Ratio (95% CI): Systemic inflammatory response syndrome (AE table),,0.250 (0.053 to 1.177) 4
same,Risk Ratio (95% CI): Tooth infection (AE table),,0.690 (0.391 to 1.217) 2
same,Risk Ratio (95% CI): Ulcerative Colitis (AE table),,[0 drug vs 1 PBO]
same,Risk Ratio (95% CI): Vascular hypertensive disorder (AE table),,0.914 (0.796 to 1.050) 1
same,Risk Ratio (95% CI): Vulvovaginal mycotic infection (AE table),,0.455 (0.158 to 1.307) 3
same,Risk Ratio (95% CI): Wheezing (AE table),,0.639 (0.379 to 1.076) 2
same,ARR,ADHD,0.0%
same,NNT,ADHD,−8362005
same,Risk Ratio (95% CI),ADHD,1.000 (0.141 to 7.097) −1
same,ARR,Acute Myeloid Leukaemia,0.0%
same,NNT,Acute Myeloid Leukaemia,−8362005
same,Risk Ratio (95% CI),Acute Myeloid Leukaemia,1.000 (0.141 to 7.097) −1
same,ARR,[1],0.0%
same,NNT,[1],−4088
same,Risk Ratio (95% CI),[1],2.000 (0.181 to 22.053) −3
same,ARR,Alzheimer's Disease,0.0%
same,NNT,Alzheimer's Disease,−3344802
same,Risk Ratio (95% CI),Alzheimer's Disease,1.000 (0.290 to 3.452) −1
same,ARR,Asthma,0.1%
same,NNT,Asthma,−1019
same,Risk Ratio (95% CI),Asthma,1.076 (0.742 to 1.560) −1
